Earlier results as cited in publication PMC13575890, “Investigating substituted phenylacetamide ligands in the D4R extended binding pocket” (Bioorganic & medicinal chemistry letters, 2026).

Legend:
human D4R = target: T1, human D4R (Homo sapiens, UniProt P21917); set-up: method as in PMID 30883109; conditions: membranes from HEK 293 cells stably expressing hD4R; previously reported compounds; read-out: Ki (nM) ± SEM [3H]N-methylspiperone D4R
T1 construct: expressed in transfected cells
T1 sequence (P21917 1-419): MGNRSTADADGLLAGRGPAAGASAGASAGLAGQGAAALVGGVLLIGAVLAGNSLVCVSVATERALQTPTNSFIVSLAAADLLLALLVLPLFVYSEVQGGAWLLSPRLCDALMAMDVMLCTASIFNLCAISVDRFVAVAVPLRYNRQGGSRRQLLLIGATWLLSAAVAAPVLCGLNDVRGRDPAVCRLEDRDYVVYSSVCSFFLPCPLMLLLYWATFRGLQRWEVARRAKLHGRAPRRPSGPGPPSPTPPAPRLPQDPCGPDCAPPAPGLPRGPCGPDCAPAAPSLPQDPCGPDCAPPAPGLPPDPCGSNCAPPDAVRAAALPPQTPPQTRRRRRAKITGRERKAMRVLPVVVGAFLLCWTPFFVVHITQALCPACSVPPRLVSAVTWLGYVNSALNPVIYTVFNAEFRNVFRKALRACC

human D3R = target: T2, human D3R (Homo sapiens, UniProt P35462); set-up: method as in PMID 30883109; conditions: membranes from HEK 293 cells stably expressing hD3R; previously reported compounds; read-out: Ki (nM) ± SEM [3H]N-methylspiperone D3R
T2 construct: expressed in transfected cells
T2 sequence (P35462 whole entry): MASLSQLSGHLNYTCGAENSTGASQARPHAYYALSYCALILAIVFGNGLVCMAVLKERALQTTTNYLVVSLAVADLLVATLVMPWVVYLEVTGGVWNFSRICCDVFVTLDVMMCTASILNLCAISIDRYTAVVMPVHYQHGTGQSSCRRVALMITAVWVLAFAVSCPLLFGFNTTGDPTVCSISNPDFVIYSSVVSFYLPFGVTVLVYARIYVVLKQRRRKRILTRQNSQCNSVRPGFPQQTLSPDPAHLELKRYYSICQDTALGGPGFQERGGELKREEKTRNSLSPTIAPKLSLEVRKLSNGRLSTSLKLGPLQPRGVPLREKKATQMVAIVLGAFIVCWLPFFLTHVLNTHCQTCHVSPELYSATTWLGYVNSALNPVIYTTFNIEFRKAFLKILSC

| Ki (human D4R) [nM] | Ki (human D3R) [nM] | SMILES |
| --- | --- | --- |
| 75.1 ± 0.7 | > 50000 | Cc1cccc(NC(=O)CN2CCN(c3ccccn3)CC2)c1 [Compound 2] |
| 66.6 ± 1.8 | – | CCc1cccc(NC(=O)CN2CCN(c3ccccn3)CC2)c1 [Compound 3] |
